Data as given in patent US20240189284A1, “COMPOSITION FOR PROMOTING LIPOLYSIS” (SUNTORY HOLDINGS LIMITED, priority 2021, published 2024).

Legend:
[1] = mice, oral administration, vs. mice not administered; cited from earlier work
lipolysis = assay: Blood metabolome evaluation study on human (placebo-controlled, randomized, double-blind, parallel-group; CE-TOF-MS); type: in vivo
Procedure: In order to evaluate the influence of supplements containing ergothioneine on the human blood metabolome, a placebo-controlled, randomized, double-blind, parallel-group study was conducted on subjects including male and female adults (46 subjects in a test food group; 46 subjects in a control food group; 92 subjects in total). In this study, one capsule containing 20 mg ergothioneine (test food) or one capsule not containing ergothioneine (control food) was fed per day for four weeks. The blood metabolome of each subject was measured for pre-testing before starting the study (before starting ingestion of the test food or control food). After ingestion of the test food or control food for four weeks, the blood metabolome of each subject was measured again (testing on week 4). The blood metabolome was measured by a capillary electrophoresis time-of-flight mass spectrometry (CE-TOF-MS) available from Human Metabolome Technologies, Inc. Two types of food for evaluation, which were indistinguishable in appearance, flavor, and the like, were used. • Test food: capsule containing a test substance (20 mg L-ergothioneine) • Control food: capsule containing no test substance Each type of food for evaluation contained raw materials such as dextrin, hydroxypropyl cellulose, carrageenan, potassium chloride, and titanium oxide, in addition to the test substance. The control food was produced using the same raw materials used in the test food, except that the test substance (L-ergothioneine) was not added. For each of lipid metabolism-related metabolites and lipids of various kinds for which significant changes were observed by the blood metabolome measurement, a ratio (test food group/control food group) was determined from the average of measurements (blood concentrations) of the test food group and the control food group at the time of testing on week 4. FIG. 1 is a graph showing blood metabolome measurements of the test food group and the control food group at the time of testing on week 4 in the form of ratios (test food group/control food group). […]

[2] = L-ergothioneine ingested compared to no L-ergothioneine ingested

## C[N+](C)(C)[C@@H](Cc1c[nH]c(=S)[nH]1)C(=O)[O-] [L-ergothioneine]
[1]
  peritesticular fat weight: lower
  triglyceride (neutral fat) level in plasma: lower
lipolysis; [2]
  blood free fatty acid (e.g., palmitoleic acid) concentration: increased
  blood glycerol concentration: significantly increased
lipolysis; human adults, 20 mg L-ergothioneine per day for four weeks, blood metabolome as a whole
  promotion of lipolysis: action to promote lipolysis
